Assay results published in patent US10143638B2, “Method of treating skin with ingenol mebutate” (LEO Laboratories Limited, priority 2009, dated 2018).

Assays:
Assay type in all cases: cell-based, human
HAS2 = HAS2 gene expression by dermal fibroblasts (qPCR); conditions: TGF-β1 10 ng/ml
From the text: (§1) A normal adult skin biopsy (6 mm) was obtained (n=1), with informed consent, from an individual attending the Oral Surgery Clinic, School of Dentistry, Wales College of Medicine, Cardiff. Following the application of a local anaesthetic, the dermal biopsy was collected and adult dermal fibroblast cultures established by single cell suspension technique, following enzymic degradation of the specimen. This technique has previously been reliably used to establish viable primary cultures of both oral and dermal fibroblasts in vitro (Cook et al, 2000; Stephens et al, 2001; 2003). Dermal fibroblasts were cultured in Fibroblast-Serum Containing Medium, containing Dulbecco's Modified Eagle's Medium (DMEM), supplemented with L-glutamine (2 mM), antibiotics (100 U/ml) penicillin G sodium, […] streptomycin sulphate and 0.25 μg/ml amphotericin B) and 10% foetal calf serum (all purchased from Invitrogen Ltd., Paisley, U.K.). Dermal fibroblast cultures were maintained at 37° C., in a 5% CO2/95% air atmosphere, with the culture medium being changed every 2-3 days. Dermal fibroblasts were used between) passage 7-17, for all experiments.
(§2) Following trypsinization, dermal fibroblasts were seeded in 24-well tissue culture plates, in PEP005-free, Fibroblast-Serum Containing Medium (1 ml), at a cell density of 2.5×10^4 cell/well. Dermal fibroblasts were maintained at 37° C., in a 5% CO2/95% air atmosphere, overnight. At this stage, the culture medium was replaced with Fibroblast-Serum Containing Medium (600 μl), containing 0 μg/ml, 0.01 μg/ml, 0.1 μg/ml, 1 μg/ml, 10 μg/ml or 100 μg/ml PEP005, +/−TGF-β1 (10 ng/ml) (three culture wells per PEP005 concentration). A control was also established, consisting of cells in Fibroblast-Serum Containing Medium, containing 1% DMSO. The dermal fibroblasts were maintained at 37° C., in a 5% CO2/95% air atmosphere, for 24 h or 72 h, prior to washing in PBS (3×1 ml) and Trizol® Reagent (250 μl) added to the cells, for 5 min at room temperature, to induce cell lysis. RNA was extracted by the phenol-chloroform method, as described above, while a cDNA library was generated via random hexamer RT, as described above. RNA (1 μg) was added to 100 µM random hexamer (1 μl), 5×RT Buffer (4 μl), 2.5 mM Deoxynucleoside Triphosphates (dNTPs, 5 μl), 2 μl DTT and Nuclease-Free Water, were added to the reaction (total volume, 20 μl). To denature the RNA, reaction tubes were placed in a GeneAmp PCR System 9700 (Applied Biosystems, Cheshire, U.K.) and heated for 5 min/95° C., prior to cooling to 4° C. Superscript (1 μl) and RNAsin® Ribonuclease Inhibitor (1 μl, Promega, Hampshire, U.K.) were added to each tube, and the tubes subjected to […] at 20° C. for 10 min, 42° C. for 1 h and 95° C. for 5 min, prior to storage at 4° C., until required. As a negative control, RT was also performed, with Nuclease-Free Water replacing the RNA sample.
(§3) qPCR was performed, as described above, with the probe and primers for HAS1, HAS2 and HAS3 (target genes) and the 18s ribosomal RNA (reference gene), designed and supplied by Applied Biosystems. PCR was performed in a final volume of 20 μl/sample, with each reaction mix consisting of cDNA (1 μl), target gene primers and probe (1 μl), Taqman® FAST Universal PCR Master Mix (10 μl, Applied Biosystems), and Nuclease-Free Water (8 μl). PCR amplification was performed, using an initial cycle of 95° C. for 1 s, followed by 40 cycles of 60° C. for 20 s. A cDNA-free control was also included. Again, the comparative CT method was used for relative quantification of gene expression. Each experiment was performed on three separate occasions.

dermal fibroblasts [1] = assay: Hyaluronan pericellular coat formation by dermal fibroblasts (particle exclusion assay); conditions: TGF-β1 10 ng/ml, absence of PEP005, 24 h
From the text: as §1
Following trypsinization, dermal fibroblasts were seeded in 53 mm bacteriological grade culture dishes (VWR International Ltd., Leicestershire, U.K.), in PEP005-free, Fibroblast-Serum Containing Medium (2 ml), at a density of 7×10^4 cell/dish. Dermal fibroblasts were maintained at 37° C., in a 5% CO2/95% air atmosphere, overnight, prior to washing in PBS (2×2 ml) and maintenance in serum-free, Fibroblast-Serum Containing Medium (2 ml), containing 0 μg/ml, 0.01 μg/ml, 0.1 μg/ml, 1 μg/ml, 10 μg/ml or 100 μg/ml PEP005, +/−TGF-β1 (10 ng/ml) (three culture dishes per PEP005 concentration). A control was also established, consisting of cells in serum-free, Fibroblast-Serum Containing Medium, containing 1% DMSO. The dermal fibroblasts were maintained at 37° C., in a 5% CO2/95% air atmosphere, for 24 h or 72 h. At 24 h and 72 h, the culture dishes were treated with formalized horse blood erythrocytes (TCS Biosciences Ltd., Buckinghamshire, U.K.). The formalized horse blood erythrocytes were washed in PBS, to remove sodium azide (3×20 ml) and centrifuged at 100 g/7 min, at 4° C. The erythrocyte cell pellet obtained was re-suspended in serum-free, Fibroblast-Serum Containing Medium, to a density of 1×10^8 cells/ml. Aliquots of the erythrocyte cell suspension (500 μl) were supplemented to each culture dish and the dishes agitated, prior to maintenance at 37° C., in a 5% CO2/95% air atmosphere, for 15 min. Zones of erythrocyte exclusion were visualized by light microscopy, using a Zeiss Axiovery 135 Inverted Microscope (Carl Zeiss Ltd., Hertfordshire, U.K.), with a Hamamatsun C5985 chilled CCD camera (Hamamatsu Photonics U.K. Ltd., Hertfordshire, U.K.) and using Openlab Software 3.0.8 (Improvision Ltd., Warwickshire, U.K.). Each experiment was performed on three separate occasions.

dermal fibroblasts [2] = assay: Hyaluronan synthesis by dermal fibroblasts (Hyaluronic Acid Quantitative Test Kit); conditions: TGF-β1 10 ng/ml, absence of PEP005, 24 h
From the text: as §1
Following trypsinization, dermal fibroblasts were seeded in 24-well tissue culture plates in PEP005-free, Fibroblast-Serum Containing Medium (1 ml), at a cell density of 2.5×10^4 cell/well. Dermal fibroblasts were maintained at 37° C., in a 5% CO2/95% air atmosphere, for 48 h, prior to maintenance in serum-free, Fibroblast-Serum Containing Medium (1 ml), for a further 48 h. At this stage, the serum-free, culture medium was replaced with Fibroblast-Serum Containing Medium (600 μl), containing 0 μg/ml, 0.01 μg/ml, 0.1 μg/ml, 1 μg/ml, 10 μg/ml or 100 μg/ml PEP005, +/−TGF-β1 (10 ng/ml) (three culture wells per PEP005 concentration). A control was also established, consisting of cells in serum-free, Fibroblast-Serum Containing Medium, containing 1% DMSO. The dermal fibroblasts were maintained at 37° C., in a 5% CO2/95% air atmosphere, for 24 h or 72 h, prior to culture medium removal. Hyaluronan synthesis in the collected culture media was quantified, using a Hyaluronic Acid Quantitative Test Kit (Corgenix U.K. Ltd., Cambridgeshire, U.K.), which utilizes a naturally occurring bovine binding protein to hyaluronan. Supernatants were assayed, as per manufacturer's instructions, and optical density measured using a spectrophotometer at 450 nm. Hyaluronan concentrations were determined by comparing the absorbance of the sample against a reference curve prepared from the reagent blank and standards. Each experiment was performed on three separate occasions.

HAS3 = HAS3 gene expression by dermal fibroblasts (qPCR); conditions: TGF-β1 10 ng/ml
From the text: as §1, §2, §3

HAS1 = HAS1 gene expression by dermal fibroblasts (qPCR); conditions: TGF-β1 10 ng/ml
From the text: as §1, §2, §3

“TGF-β1: TGF-β1 (10 ng/ml) added to dermal fibroblast cultures with or without PEP005 [reference compound]” was tested, and the HAS2 expression (HAS2; absence of PEP005, 24 h) was “little effect”, the HAS2 expression (HAS2; absence of PEP005, 72 h (p>0.05)) was “minimal effects” and the “hyaluronan pericellular coat formation” value (dermal fibroblasts [1]) was “slight increase”. The hyaluronan synthesis (dermal fibroblasts [2]) was “slight stimulation”, the HAS3 expression (HAS3; absence of PEP005, 24 h (p<0.01)) was “inhibitory effect” and the HAS3 expression (HAS3; absence of PEP005, 72 h) was “inhibitory effect”. The HAS1 expression (HAS1; absence of PEP005, 24 h, compared to control fibroblasts (p<0.001)) was “major up-regulation” and the HAS1 expression (HAS1; absence of PEP005, 72 h, compared to control fibroblasts) was “up-regulation”.
